From PubChem BioAssay AID540371 (The Scripps Research Institute Molecular Screening Center, 2011)
The source made the active and inactive calls. The rule behind the calls is not given here.

Target: Melanin-concentrating hormone receptor 1 (Homo sapiens) (UniProt Q99705)
Test: MCHR1 antagonists, late-stage follow-up, selectivity assay for GPR7 antagonist project, cell-based, fluorescence, dose response, set 3 (AID 540371)
Settings: MCHR1-expressing cells

In the case of `CCOc1ccc(Oc2c(S(C)=O)cnn(Cc3cccc4ccccc34)c2=O)cc1` (stereo not drawn), the IC50 (run 1) is reported as 6.19 µM, the IC50 (run 2) is reported as “inactive” and the IC50 (run 3) is reported as “inactive”.

For `COc1ccc(Oc2c(Cl)cnn(Cc3c(F)cccc3F)c2=O)cc1`, the IC50 (run 1) was “inactive”, the IC50 (run 2) was “inactive” and the IC50 (run 3) was “inactive”.

In the case of `COc1ccc(Oc2c(Cl)cnn(Cc3c4ccccc4cc4ccccc34)c2=O)cc1`, the IC50 (run 1) is reported as > 20 µM (inactive), the IC50 (run 2) is reported as > 20 µM (inactive) and the IC50 (run 3) is reported as “inactive”.

`COc1ccc(Oc2c(Cl)cnn(Cc3ccccc3)c2=O)cc1` was tested, and the IC50 (run 1) was 8.51 µM, the IC50 (run 2) was “inactive” and the IC50 (run 3) was “inactive”.

`COc1ccc(Oc2c(Cl)cnn(Cc3cccc4ccccc34)c2=O)cc1` showed an IC50 (run 1) of 0.988 µM, an IC50 (run 2) of 1.7 µM and an IC50 (run 3) of 1.61 µM.

`CCOc1ccc(Oc2c(Cl)cnn(Cc3cccc4ccccc34)c2=O)cc1` was tested, and the IC50 (run 1) was 1.59 µM, the IC50 (run 2) was 5.22 µM and the IC50 (run 3) was 6.71 µM.

Molecule `COc1ccc(Oc2c(Br)cnn(Cc3cccc4ccccc34)c2=O)cc1` has an IC50 (run 1) of 0.892 µM, an IC50 (run 2) of 2.14 µM and an IC50 (run 3) of 1.66 µM.

`COc1ccc(Nc2c(Cl)cnn(Cc3cccc4ccccc34)c2=O)cc1` was tested, and the IC50 (run 1) was “inactive”, the IC50 (run 2) was “inactive” and the IC50 (run 3) was > 20 µM (inactive).

With `CCOc1ccc(Oc2c(Cl)c(Br)nn(Cc3cccc4ccccc34)c2=O)cc1` the IC50 (run 1) was 2.39 µM, the IC50 (run 2) was 6.02 µM and the IC50 (run 3) was “inactive”.

In the case of `COc1ccc(Oc2c(Cl)c(C#N)nn(Cc3ccccc3C)c2=O)cc1`, the IC50 (run 1) is reported as 2.52 µM, the IC50 (run 2) is reported as 2.33 µM and the IC50 (run 3) is reported as 2.71 µM.

`CCc1ccc(Oc2c(Cl)cnn(Cc3cccc4ccccc34)c2=O)cc1` showed an IC50 (run 1) of 1.95 µM, an IC50 (run 2) of 1.72 µM and an IC50 (run 3) of 2.08 µM.

With `CCCOc1ccc(Oc2c(Cl)cnn(C3c4ccccc4-c4ccccc43)c2=O)cc1` the IC50 (run 1) was > 20 µM (inactive), the IC50 (run 2) was > 20 µM (inactive) and the IC50 (run 3) was > 20 µM (inactive).

With `COc1ccc(Oc2c(Cl)cnn(Cc3cccc4cnccc34)c2=O)cc1` the IC50 (run 1) was 5.15 µM, the IC50 (run 2) was 4.96 µM and the IC50 (run 3) was 5.67 µM.

`COc1ccc(Oc2c(Cl)cnn(C(C(=O)c3ccccc3)c3ccccc3)c2=O)cc1` (stereo not drawn) was tested, and the IC50 (run 1) was “inactive”, the IC50 (run 2) was > 20 µM (inactive) and the IC50 (run 3) was > 20 µM (inactive).

For `COc1ccc(Oc2c(Cl)cnn(C(c3ccccc3)c3ccccc3)c2=O)cc1`, the IC50 (run 1) was “inactive”, the IC50 (run 2) was > 20 µM (inactive) and the IC50 (run 3) was 7.22 µM.

With `CCOc1ccc(Oc2c(Cl)cnn(C3c4ccccc4-c4ccccc43)c2=O)cc1` the IC50 (run 1) was > 20 µM (inactive), the IC50 (run 2) was > 20 µM (inactive) and the IC50 (run 3) was > 20 µM (inactive).

Work on `COc1ccc(Oc2c(Cl)cnn(Cc3ccccc3-c3ccccc3)c2=O)cc1` yielded an IC50 (run 1) of 1.12 µM, an IC50 (run 2) of 2.24 µM and an IC50 (run 3) of 4.59 µM.

In the case of `CCOC(=O)C(c1ccccc1)n1ncc(Cl)c(Oc2ccc(OC)cc2)c1=O` (stereo not drawn), the IC50 (run 1) is reported as 8.48 µM, the IC50 (run 2) is reported as “inactive” and the IC50 (run 3) is reported as 8.11 µM.

For `O=c1c(Oc2ccc3c(c2)CCO3)c(Cl)cnn1Cc1cccc2ccccc12`, the IC50 (run 1) was 7.4 µM, the IC50 (run 2) was > 20 µM (inactive) and the IC50 (run 3) was > 20 µM (inactive).

In the case of `COc1ccc(Sc2c(Cl)cnn(Cc3cccc4ccccc34)c2=O)cc1`, the IC50 (run 1) is reported as “inactive”, the IC50 (run 2) is reported as “inactive” and the IC50 (run 3) is reported as “inactive”.

Work on `COc1ccc(Oc2c(C#N)cnn(Cc3cccc4ccccc34)c2=O)cc1` yielded an IC50 (run 1) of 2.09 µM, an IC50 (run 2) of 2.25 µM and an IC50 (run 3) of 2.22 µM.

With `CCCOc1ccc(Oc2c(Cl)cnn(Cc3cccc4ccccc34)c2=O)cc1` the IC50 (run 1) was “inactive”, the IC50 (run 2) was > 20 µM (inactive) and the IC50 (run 3) was > 20 µM (inactive).

With `COc1ccc(Oc2c(Cl)cnn(Cc3ccc4ccccc4c3)c2=O)cc1` the IC50 (run 1) was 4.01 µM, the IC50 (run 2) was “inactive” and the IC50 (run 3) was “inactive”.

For `COc1ccc(Oc2c(Cl)cnn(C3c4ccccc4-c4ccccc43)c2=O)cc1`, the IC50 (run 1) was > 20 µM (inactive), the IC50 (run 2) was > 20 µM (inactive) and the IC50 (run 3) was > 20 µM (inactive).

Molecule `COc1ccc(Oc2c(Cl)cnn(Cc3c(C)ccc4ccccc34)c2=O)cc1` has an IC50 (run 1) of 0.77 µM, an IC50 (run 2) of 0.815 µM and an IC50 (run 3) of 0.836 µM.

With `COc1ccc(Oc2c(Cl)cnn(CC(=O)C(c3ccccc3)c3ccccc3)c2=O)cc1` the IC50 (run 1) was 2.92 µM, the IC50 (run 2) was 2.87 µM and the IC50 (run 3) was 5.49 µM.

`CCOC(=O)C(c1cccc2ccccc12)n1ncc(Cl)c(Oc2ccc(OC)cc2)c1=O` (stereo not drawn) was tested, and the IC50 (run 1) was > 20 µM (inactive), the IC50 (run 2) was > 20 µM (inactive) and the IC50 (run 3) was > 20 µM (inactive).

With `COc1ccc(Oc2c(Cl)cnn(Cc3ccccc3C)c2=O)cc1` the IC50 (run 1) was 3.06 µM, the IC50 (run 2) was 7.68 µM and the IC50 (run 3) was 5.64 µM.

Molecule `C=Cc1nn(Cc2ccccc2C)c(=O)c(Oc2ccc(OC)cc2)c1C=C` has an IC50 (run 1) of 1.43 µM, an IC50 (run 2) of 1.31 µM and an IC50 (run 3) of 1.45 µM.

`COc1ccc(Oc2c(Cl)cnn(Cc3cc(C)cc(C)c3)c2=O)cc1` was tested, and the IC50 (run 1) was 1.5 µM, the IC50 (run 2) was “inactive” and the IC50 (run 3) was 6.46 µM.

`COc1ccc(Oc2c(Cl)cnn(Cc3ccccc3C(F)(F)F)c2=O)cc1` was tested, and the IC50 (run 1) was 4.49 µM, the IC50 (run 2) was 4.57 µM and the IC50 (run 3) was 3.34 µM.
